How the values were obtained:
Type in all cases: cell-based
[1] = test system: Chrysosporium keratinophilum; test: Agar plate disc-diffusion, antifungal inhibition zone
Experimental: (§1) The agar plate disc-diffusion method was applied. […] The discs were then placed onto the surface of agar plates (nutrient agar for bacteria and Sabouraud's dextrose agar for fungi) seeded with the test organism. Each plate contained 15 mL of the agar medium, previously seeded with 0.2 mL of the broth culture of each organism pregrown for 18 hours. The plates were incubated at 37° C. for 48 h, and 72 h for fungi. The inhibition zones were measured in mm. Discs impregnated with DMSO were used as a control, and its inhibition zone was subtracted from the tested compound actual inhibition zone.

Aspergillus flavus = test: as above
Experimental: as §1

Pseudomonas aeruginosa = test: Agar plate disc-diffusion, antibacterial inhibition zone
Experimental: as §1

Staphylococcus aureus = test: as above
Experimental: as §1

Escherichia coli = test: as above
Experimental: as §1

Bacillus Cereus = test: as above
Experimental: as §1

different microbes = test: Antimicrobial activity, agar plate disc-diffusion (overall statement); details: against different microbes, result in words
Experimental: The agar plate disc-diffusion method was applied. Sterilized filter papers (6 mm in diameter) were wetted with 10 μL of a solution of 3-(4-bromophenyl)-5-((2-isopropyl-5-methylphenoxy)methyl)-1,2,4-oxadiazole (3) to be tested, containing 10 mg/mL in DMSO, and the discs were allowed to air dry. The discs were then placed onto the surface of agar plates (nutrient agar for bacteria and Sabouraud's dextrose agar for fungi) seeded with the test organism. Each plate contained 15 mL of the agar medium, previously seeded with 0.2 mL of the broth culture of each organism pregrown for 18 hours. The plates were incubated at 37° C. for 48 h, and 72 h for fungi. The inhibition zones were measured in mm. Discs impregnated with DMSO were used as a control, and its inhibition zone was subtracted from the tested compound actual inhibition zone.

[2] = test system: human osteosarcoma cells (MG-63); test: Cytotoxicity by SRB assay; details: MG-63 cells, 0.01 μM to 100 μM for 72 h, result in words
Source text: (§2) The anticancer activity of the described synthesized compounds against highly aggressive androgen-independent metastatic human prostate cancer cells (PC3) and osteosarcoma (MG-63) cells. The human prostate cancer cells (PC3) and human osteosarcoma cells (MG-63) were obtained from Nawah Scientific Inc. (Mokatam, Cairo, Egypt) and cultured in DMEM (Dulbecco's modified eagle's medium), Gibco, USA, supplemented with fetal bovine serum (FBS) at a concentration of 10% and 100 U/mL of penicillin and streptomycin (PS). The Cells were incubated at 37° C. in a humidified environment that contained 5% CO2.
(§3) Cells were seeded in 96-well plates as aliquots of 100 μL cell suspension and incubated in a complete media for 24 h. afterward, cells were treated with 3-(4-bromophenyl)-5-((2-isopropyl-5-methylphenoxy)methyl)-1,2,4-oxadiazole at diverse concentrations ranging from 0.01 μM to 100 μM for 72 h. Then, cells were fixed at 4° C. for one hour with 150 μL of 10% trichloroacetic acid (TCA). […] Then, 150 μL of Tris pH 10.5 (10 mM) was added, and the absorbance was measured at 540 nm using a BMG LABTECH®-FLUOstar Omega microplate reader (Ortenberg, Germany). Half maximal inhibitory concentrations (IC50) values were calculated for each experiment using GraphPad Prism 6 software. […]
(§4) The inhibition was calculated using the following equation: Inhibition %=100−Average Viability

[3] = test system: human prostate cancer cells (PC3); test: Cytotoxicity by SRB assay; details: 0.01 μM to 100 μM for 72 h, result in words
Source text: as §2, §3, §4

[4] = A = concentration of comp. = 10,000 μL
[5] = B = concentration of comp. = 30,000 μL
[6] = C = concentration of comp. = 50,000 μL

Molecule O=C(O)c1cn(C2CC2)c2cc(N3CCNCC3)c(F)cc2c1=O [Cip., ciprofloxacin, reference compound] has an inhibition zone [1, 4] of 29 mm, an inhibition zone [1, 5] of 30 mm and an inhibition zone [1, 6] of 53 mm. The inhibition zone (Aspergillus flavus; [4]) was 29 mm, the inhibition zone (Aspergillus flavus; [5]) was 30 mm and the inhibition zone (Aspergillus flavus; [6]) was 42 mm. For the same molecule, the inhibition zone (Pseudomonas aeruginosa; [4]) was 29 mm, the inhibition zone (Pseudomonas aeruginosa; [5]) was 30 mm and the inhibition zone (Pseudomonas aeruginosa; [6]) was 53 mm. For the same molecule, the inhibition zone (Staphylococcus aureus; [4]) was 43 mm, the inhibition zone (Staphylococcus aureus; [5]) was 44 mm and the inhibition zone (Staphylococcus aureus; [6]) was 53 mm. It also gave an inhibition zone (Escherichia coli; [4]) of 30 mm, an inhibition zone (Escherichia coli; [5]) of 39 mm and an inhibition zone (Escherichia coli; [6]) of 60 mm. The inhibition zone (Bacillus Cereus; [4]) was 29 mm, the inhibition zone (Bacillus Cereus; [5]) was 30 mm and the inhibition zone (Bacillus Cereus; [6]) was 42 mm.
Cc1ccc(C(C)C)c(OCc2nc(-c3ccc(Br)cc3)no2)c1 [compound 3, 3-(4-bromophenyl)-5-((2-isopropyl-5-methylphenoxy)methyl)-1,2,4-oxadiazole] showed an inhibition zone [1, 4] of 26 mm, an inhibition zone [1, 5] of 28 mm and an inhibition zone [1, 6] of 48 mm. For the same molecule, the inhibition zone (Aspergillus flavus; [4]) was 17 mm, the inhibition zone (Aspergillus flavus; [5]) was 20 mm and the inhibition zone (Aspergillus flavus; [6]) was 29 mm. The inhibition zone (Pseudomonas aeruginosa; [4]) was 24 mm, the inhibition zone (Pseudomonas aeruginosa; [5]) was 27 mm and the inhibition zone (Pseudomonas aeruginosa; [6]) was 39 mm. The inhibition zone (Staphylococcus aureus; [4]) was 13 mm, the inhibition zone (Staphylococcus aureus; [5]) was 17 mm and the inhibition zone (Staphylococcus aureus; [6]) was 21 mm. For the same molecule, the inhibition zone (Escherichia coli; [4]) was 28 mm, the inhibition zone (Escherichia coli; [5]) was 37 mm and the inhibition zone (Escherichia coli; [6]) was 55 mm. The inhibition zone (Bacillus Cereus; [4]) was 25 mm, the inhibition zone (Bacillus Cereus; [5]) was 27 mm and the inhibition zone (Bacillus Cereus; [6]) was 42 mm. For the same molecule, the antimicrobial activity (different microbes) was “excellent antimicrobial activities”.
For Cc1ccc(C(C)C)c(OCc2nc(-c3ccc(Br)cc3)no2)c1 [3-(4-bromophenyl)-5-((2-isopropyl-5-methylphenoxy)methyl)-1,2,4-oxadiazole], the antiproliferative activity [2] was “excellent antiproliferative activities” and the antiproliferative activity [3] was “excellent antiproliferative activities”.
